In DBAASP one finds MIC data, which are given here for 12 molecules.

Molecules are shown by their SMILES. In brackets after ≈: the same amount, converted by molar mass.

Some test systems named below: Bacillus subtilis; Acinetobacter baumannii; Staphylococcus aureus; Escherichia coli; Candida albicans; Bacillus cereus; Escherichia coli UB1005.
Assay in all cases: ≥ marks a high value that may be exact or a test limit, other limits are often not marked, values filed in µg/mL are converted to µM
In assay [1] the test system is Staphylococcus aureus ATCC 25923.
The subject of assay [2] is Bacillus subtilis ATCC 6633.
Assay [3] has as its system Pseudomonas aeruginosa ATCC 9027.
Assay [4] deals with Escherichia coli ATCC 25922.
The test system of assay [5] is Klebsiella pneumoniae ATCC 700603.
For assay [6], the system named is Acinetobacter baumannii ATCC 19606.
Assay [7] deals with Salmonella enterica subsp. enterica serovar Typhimurium C77-31.
The subject of assay [8] is Staphylococcus epidermidis ATCC 12228.
Assay [9] has as its system Staphylococcus aureus ATCC 29213.
In assay [10] the test system is Staphylococcus aureus ATCC 6538.
Assay [11] has as its system Escherichia coli DH5alpha.
For assay [12], the system named is Pseudomonas aeruginosa ATCC 27853.

Consider `CC(C)C[C@H](NC(=O)[C@@H]1CSSC[C@H](NC(=O)CNC(=O)[C@H](CCCN=C(N)N)NC(=O)[C@H](Cc2ccccc2)NC(=O)[C@H](C)NC(=O)[C@H](C)N)C(=O)N[C@@H](Cc2c[nH]c3ccccc23)C(=O)N[C@@H]([C@@H](C)O)C(=O)N[C@@H](CCCCN)C(=O)N[C@@H](CC(N)=O)C(=O)N[C@@H](Cc2ccc(O)cc2)C(=O)N[C@@H](CO)C(=O)N2CCC[C@H]2C(=O)N[C@@H](CCCCN)C(=O)N2CCC[C@H]2C(=O)N1)C(=O)O` [AAFRGCWTKNYSPKPCL], for which the MIC (usually the lowest concentration found to suppress growth) in [1] stood at 51.5 µM (≈ 99.9 µg/mL); in assay [2], 25.8 µM (≈ 50.1 µg/mL).
Molecule `CC(C)C[C@H](NC(=O)[C@H](CCC(=O)O)NC(=O)[C@H](CC(C)C)NC(=O)[C@H](CO)NC(=O)[C@H](CC(=O)O)NC(=O)[C@H](Cc1ccc(O)cc1)NC(=O)[C@H](CCCN=C(N)N)NC(=O)[C@H](Cc1ccc(O)cc1)NC(=O)CNC(=O)[C@H](Cc1ccccc1)NC(=O)[C@H](CCCCN)NC(=O)[C@H](CCCCN)NC(=O)[C@H](Cc1ccc(O)cc1)NC(=O)[C@H](CC(=O)O)NC(=O)[C@H](Cc1ccccc1)NC(=O)[C@@H](NC(=O)[C@@H](N)CC(=O)O)[C@@H](C)O)C(=O)N[C@@H](CCC(=O)O)C(=O)NCC(=O)N[C@@H](CCCN=C(N)N)C(=O)O` [DTFDYKKFGYRYDSLELEGR] showed an MIC against Bacillus subtilis of 0.548 µM (≈ 1.37 µg/mL).
For the molecule `CC(C)C[C@H](NC(=O)[C@H](CCCCN)NC(=O)[C@H](CC(C)C)NC(=O)[C@H](C)NC(=O)[C@H](CC(C)C)NC(=O)[C@H](CCCCN)NC(=O)[C@H](CCCCN)NC(=O)[C@H](CC(C)C)NC(=O)[C@H](CC(C)C)NC(=O)[C@H](CCCCN)NC(=O)[C@H](Cc1c[nH]c2ccccc12)NC(=O)[C@@H](NC(=O)[C@H](CC(C)C)NC(=O)[C@H](CCCCN)NC(=O)[C@@H](N)Cc1ccccc1)C(C)C)C(=O)O` [FKLVWKLLKKLALKL], the MIC was more than 64 µM in assay [3]; more than 64 µM in [4]; 32 µM (≈ 58.9 µg/mL) in [1]; not below 64 µM against Acinetobacter baumannii; 64 µM (≈ 118 µg/mL) in [5].
Regarding `CC(C)C[C@H](NC(=O)[C@@H](N)Cc1ccccc1)C(=O)N1CCC[C@H]1C(=O)N1CCC[C@H]1C(=O)N[C@@H](CO)C(=O)N1CCC[C@H]1C(=O)N[C@@H](Cc1c[nH]c2ccccc12)C(=O)N[C@@H](CCCCN)C(=O)N[C@@H](CCC(=O)O)C(=O)N[C@H](C(=O)N[C@@H](Cc1ccccc1)C(=O)N[C@@H](CCCN=C(N)N)C(=O)N[C@H](C(=O)N[C@@H](CO)C(=O)O)[C@@H](C)O)[C@@H](C)O` [FLPPSPWKETFRTS], the minimum inhibitory concentration (MIC) is 12.6 µM (≈ 21.3 µg/mL) with Staphylococcus aureus, 25.1 µM (≈ 42.5 µg/mL) with Escherichia coli, 12.6 µM (≈ 21.3 µg/mL) in the assay with Candida albicans and not below 50.2 µM against Bacillus subtilis.
Turning to `CC[C@H](C)[C@H](NC(=O)[C@H](CCCNC(=N)N)NC(=O)[C@@H](NC(=O)[C@@H](NC(=O)[C@@H]1CCCN1C(=O)[C@@H](NC(=O)[C@@H](NC(=O)[C@@H](NC(=O)[C@@H]1CCCN1C(=O)CNC(=O)[C@H](Cc1ccc(O)cc1)NC(=O)[C@H](CCCCN)NC(=O)[C@H](CCCCN)NC(=O)[C@H](Cc1c[nH]c2ccccc12)NC(=O)[C@H](C)NC(=O)[C@H](CCCNC(=N)N)NC(=O)[C@H](CC(C)C)NC(=O)[C@@H](NC(=O)[C@H](CCCCN)NC(=O)[C@H](CCCNC(=N)N)NC(=O)CNC(=O)[C@H](CC(C)C)NC(=O)[C@H](CO)NC(=O)[C@H](CCCNC(=N)N)NC(=O)[C@H](CC(C)C)NC(=O)CNC(=O)CN)[C@@H](C)CC)[C@@H](C)CC)[C@@H](C)CC)C(C)C)[C@@H](C)CC)[C@@H](C)CC)C(N)=O` [GGLRSLGRKILRAWKKYGPIIVPIIRI], the MIC was determined as 1.63 µM (≈ 5 µg/mL) in assay [6] and 2.3 µM (≈ 7.07 µg/mL) with Acinetobacter baumannii.
For `CC[C@H](C)[C@H](NC(=O)CN)C(=O)N[C@@H](Cc1ccccc1)C(=O)NCC(=O)N[C@@H](CCCCN)C(=O)N[C@H](C(=O)N[C@@H](CC(C)C)C(=O)NCC(=O)N[C@H](C(=O)NCC(=O)N[C@@H](CCCCN)C(=O)N[C@@H](CCCCN)C(=O)N[C@H](C(=O)N[C@@H](CC(C)C)C(=O)N[C@H]1CSSC[C@@H](C(=O)O)NC(=O)[C@H](C(C)C)NC(=O)CNC(=O)[C@H](CO)NC(=O)[C@H](CC(C)C)NC(=O)CNC1=O)C(C)C)C(C)C)[C@@H](C)CC` [GIFGKILGVGKKVLCGLSGVC], the MIC was 2.88 µM (≈ 5.89 µg/mL) against Staphylococcus aureus, 11.5 µM (≈ 23.6 µg/mL) in the assay with Escherichia coli, 5.76 µM (≈ 11.8 µg/mL) in the assay on Candida albicans and 2.88 µM (≈ 5.89 µg/mL) with Bacillus subtilis.
Take `CC[C@H](C)[C@H](NC(=O)[C@H](CCCCN)NC(=O)[C@H](CCCCN)NC(=O)[C@@H](NC(=O)[C@H](CC(C)C)NC(=O)[C@H](CC(C)C)NC(=O)[C@H](CCCCN)NC(=O)CN)C(C)C)C(=O)N[C@H](C(=O)N[C@@H](CO)C(=O)N[C@@H](CC(C)C)C(=O)N[C@H](C(=O)N[C@@H](CCCN=C(N)N)C(=O)N[C@@H](CO)C(=O)N[C@@H](C)C(N)=O)C(C)C)C(C)C` [GKLLVKKIVSLVRSA]: the MIC in assay [3] was more than 25 µM; in assay [4], more than 25 µM; in [1], more than 25 µM; against Acinetobacter baumannii, 25 µM (≈ 40.3 µg/mL); in assay [5], more than 25 µM.
Consider `CC[C@H](C)[C@H](NC(=O)[C@H](CO)NC(=O)[C@H](CCC(N)=O)NC(=O)[C@H](CC(C)C)NC(=O)[C@H](C)NC(=O)[C@H](CC(=O)O)NC(=O)[C@H](CCCCN)NC(=O)[C@H](CCCCN)NC(=O)[C@H](CC(C)C)NC(=O)CN)C(=O)N[C@H](C(=O)N[C@@H](CCCCN)C(=O)N[C@@H](CCCCN)C(=O)N[C@@H](C)C(=O)N[C@@H](CCC(N)=O)C(=O)N[C@@H](CC(C)C)C(=O)N[C@@H](C)C(=O)N[C@@H](C)C(=O)N[C@@H](CCSC)C(=O)NCC(=O)O)C(C)C` [GLKKDALQSIVKKAQLAAMG], for which the values for the MIC in the assay on Bacillus cereus and against Escherichia coli were not below 124 µM and more than 124 µM, respectively.
Take `CC[C@H](C)[C@H](NC(=O)[C@H](C)NC(=O)[C@H](CCCCN)NC(=O)[C@H](CC(C)C)NC(=O)[C@@H](NC(=O)[C@H](CCCCN)NC(=O)CNC(=O)[C@@H](NC(=O)[C@H](CCCCN)NC(=O)[C@H](CCCCN)NC(=O)[C@H](CC(C)C)NC(=O)[C@H](CCCN=C(N)N)NC(=O)[C@H](CCCCN)NC(=O)[C@H](CCCN=C(N)N)NC(=O)[C@@H](NC(=O)[C@H](CCCCN)NC(=O)[C@H](CCCCN)NC(=O)[C@H](CCCN=C(N)N)NC(=O)[C@H](CC(C)C)NC(=O)[C@H](CCCN=C(N)N)NC(=O)[C@H](CCCN=C(N)N)NC(=O)[C@H](Cc1ccccc1)NC(=O)[C@H](CCCN=C(N)N)NC(=O)CN)[C@@H](C)O)[C@@H](C)CC)C(C)C)C(N)=O` [GRFRRLRKKTRKRLKKIGKVLKAI]: the MIC in assay [7] is not below 128 µM; in assay [4], 16 µM (≈ 47.2 µg/mL); in [1] it was 128 µM (≈ 378 µg/mL); in the assay on Escherichia coli UB1005, 16 µM (≈ 47.2 µg/mL); in [8] it was 128 µM (≈ 378 µg/mL); in [9], 128 µM (≈ 378 µg/mL).
Regarding `CC[C@H](C)[C@H](N)C(=O)N[C@@H](CC(N)=O)C(=O)N[C@@H](Cc1c[nH]c2ccccc12)C(=O)N[C@@H](CCCCN)C(=O)N[C@@H](CCCCN)C(=O)N[C@H](C(=O)N[C@@H](C)C(=O)N[C@@H](CO)C(=O)N[C@H](C(=O)NCC(=O)N[C@@H](CCCCN)C(=O)N[C@@H](CCC(=O)O)C(=O)N[C@H](C(N)=O)C(C)C)[C@@H](C)CC)[C@@H](C)CC` [INWKKIASIGKEV], the MIC against Escherichia coli is 100 µM (≈ 148 µg/mL); with Bacillus subtilis, not below 100 µM.
Consider `CC(C)C[C@H](NC(=O)[C@H](CC(C)C)NC(=O)[C@H](CCCCN)NC(=O)[C@H](CCCCN)NC(=O)[C@H](C)NC(=O)[C@H](CC(C)C)NC(=O)[C@H](CCCCN)NC(=O)[C@H](C)NC(=O)[C@H](CC(C)C)NC(=O)[C@H](CC(C)C)NC(=O)[C@H](CCCCN)NC(=O)[C@H](C)NC(=O)[C@@H](N)C(C)C)C(N)=O` [VAKLLAKLAKKLL], for which the MIC in [3] and in assay [10] was 3.55 µM (≈ 5 µg/mL) each time.
On to `CC[C@H](C)[C@H](NC(=O)[C@H](Cc1ccccc1)NC(=O)[C@@H](NC(=O)[C@H](Cc1ccc(O)cc1)NC(=O)[C@H](CCCN=C(N)N)NC(=O)[C@H](CCCCN)NC(=O)[C@H](CCCN=C(N)N)NC(=O)[C@H](CCCCN)NC(=O)[C@H](Cc1c[nH]c2ccccc12)NC(=O)[C@H](CC(C)C)NC(=O)[C@@H](NC(=O)[C@@H](N)Cc1ccc(O)cc1)C(C)C)[C@@H](C)CC)C(=O)O` [YVLWKRKRYIFI], for which the MIC came to 3.56 µM (≈ 6 µg/mL) in [11], 1.78 µM (≈ 3 µg/mL) in [1], 8.9 µM (≈ 15 µg/mL) in assay [12] and 3.56 µM (≈ 6 µg/mL) in the assay with Bacillus subtilis.
